Results published in patent US4226879A, “Antibiotic composition” (Kyowa Hakko Kogyo Kabushiki Kaisha, priority 1976, dated 1980).
Structures can show the parent of a compound that is named as a salt.

System: Eimeria tenella K-2
Experiment: anticoccidial test in chicks (Example 4)
Conditions: for Caecal lession (numbers of chicks), ++: grade ++ (middle); for Caecal lession (numbers of chicks), +++: grade +++ (heavy)
[1] = 0.025 % in diet, groups of 10 chicks
[2] = 0.0125 % in diet, groups of 10 chicks
[3] = 0.0033 % in diet, groups of 10 chicks
[4] = 0.0066 % in diet, groups of 10 chicks

## Cc1nc(C)c(Cl)c(O)c1Cl [Clopidol, reference compound]
0.0125 % in diet
  Survival ratio: 50%
0.025 % in diet
  Survival ratio: 70%
[1]
  Caecal lession (numbers of chicks), ++: 4 numbers of chicks
  Caecal lession (numbers of chicks), +++: 6 numbers of chicks
[2]
  Caecal lession (numbers of chicks), +++: 10 numbers of chicks

## CCCc1ncc(C[n+]2ccccc2C)c(N)n1 [Amprolium hydrochloride, reference compound]
0.0125 % in diet
  Survival ratio: 40%
0.025 % in diet
  Survival ratio: 70%
[1]
  Caecal lession (numbers of chicks), ++: 2 numbers of chicks
  Caecal lession (numbers of chicks), +++: 8 numbers of chicks
[2]
  Caecal lession (numbers of chicks), +++: 10 numbers of chicks

## N=C(N/N=C/c1ccc(Cl)cc1)N/N=C/c1ccc(Cl)cc1 [Robenidine hydrochloride, reference compound]
0.0033 % in diet
  Survival ratio: 80%
0.0066 % in diet
  Survival ratio: 100%
Grade + (light), 0.0066 % in diet, groups of 10 chicks
  Caecal lession (numbers of chicks), +: 2 numbers of chicks
[3]
  Caecal lession (numbers of chicks), ++: 2 numbers of chicks
  Caecal lession (numbers of chicks), +++: 8 numbers of chicks
[4]
  Caecal lession (numbers of chicks), ++: 5 numbers of chicks
  Caecal lession (numbers of chicks), +++: 3 numbers of chicks
